Experimental data published in patent US10647677B2, “Analogues of hydroxychloroquine (HCQ) without retinal toxicity” (Inoviem Scientific, priority 2015, dated 2020).
“Also recorded” adds a separate entry of the source. Read-outs that look alike come from different tables or passages of the source.

Experiments:
myeloperoxidase (MPO) = target: T1, myeloperoxidase (MPO) (Homo sapiens, UniProt P05164); test: Surface plasmon resonance (Biacore 3000) affinity on MPO; format: binding; conditions: SPR at 25° C.
T1 construct: purchased
T1 sequence (P05164 49-745): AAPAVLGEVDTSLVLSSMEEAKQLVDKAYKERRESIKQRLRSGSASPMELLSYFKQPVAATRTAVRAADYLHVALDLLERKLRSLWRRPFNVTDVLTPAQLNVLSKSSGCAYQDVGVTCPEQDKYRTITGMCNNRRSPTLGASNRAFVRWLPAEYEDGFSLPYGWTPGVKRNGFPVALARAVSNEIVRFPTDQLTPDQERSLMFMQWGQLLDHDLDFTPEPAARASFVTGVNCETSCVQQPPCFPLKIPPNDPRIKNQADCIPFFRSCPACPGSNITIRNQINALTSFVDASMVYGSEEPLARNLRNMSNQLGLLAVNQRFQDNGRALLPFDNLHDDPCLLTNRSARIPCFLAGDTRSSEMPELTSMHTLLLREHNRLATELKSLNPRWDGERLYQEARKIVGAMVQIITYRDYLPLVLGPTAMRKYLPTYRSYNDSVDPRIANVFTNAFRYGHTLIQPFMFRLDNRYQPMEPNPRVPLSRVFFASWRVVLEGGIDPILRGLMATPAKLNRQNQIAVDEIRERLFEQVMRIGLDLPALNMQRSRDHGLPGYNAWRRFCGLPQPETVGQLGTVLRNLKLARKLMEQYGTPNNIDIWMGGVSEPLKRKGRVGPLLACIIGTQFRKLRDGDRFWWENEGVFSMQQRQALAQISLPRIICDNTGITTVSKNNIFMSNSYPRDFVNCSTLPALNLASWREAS
Description: (§1) Using the surface plasmon resonance technology (Biacore 3000), the interaction constants between HCQ analogues (HCQa) and myeloperoxidase (MPO) targets and αB-crystalline (αB-C) were measured at 25° C. according to 12 different series of experiments. First, HCQ analogues at five different concentrations (10^−6 to 10^−8 M) were injected at a rate of 10^−6 L/min for 250 s on the MPO and αB-C targets as well as on the ERK1 and ERK2 controls, followed by a dissociation phase of 150 s.
(§2) The kinetic parameters were measured using the BIAevaluation 4.1 software. The set of resonance unit values obtained with the controls were subtracted from those obtained with MPO and αB-C to compensate for non-specific bonds.
(§3) The differences in Kd values for the myeloperoxidase (MPO) and αB-crystalline (αB-C) enzymes in Tables 1 and 2 are due to the variability of commercial batches. Nevertheless, the difference between the Kd of the compounds HCQ and CB137 remains identical according to these two tests.
(§4) Analysis of the compounds in the form of sulphate salts according to the method described above: […]

[1] = test system: C57Bl/6 mice, pulmonary vasculitis induced by immune complexes; test: Pulmonary vasculitis induced by immune complexes: histological analysis of lung sections; format: in vivo; conditions: per os before induction; HCQ 10 mg/kg, CB137 10, 30 or 100 mg/kg (FIG. 6)
Description: Female C57Bl/6 strain mice from the Jackson Laboratory, 8-10 weeks old and weighing about 20 g, are used in all experiments. The mice are maintained at a temperature of 23° C.±1° C. with 12-hour light/dark cycle. Mice have access to water and food ad libitum and are housed at least one week before the beginning of any experiments.
A retro-orbital blood sampling was performed using capillaries containing heparin on mice anesthetized with isoflurane the day before the manipulation. The next day, the mice were anesthetized with a mixture of ketamine and xylasin (90 mg/kg and 125 mg/kg, respectively). The immune IgG complex is induced in the lungs by intratracheal instillation of 0.5 mg of anti-BSA rabbit antibody (MP Biomedicals, Strasbourg, France) and by the administration of 0.5 mg per mouse of BSA antigen in the caudal vein (Warner et al., 2001 and Warren et al., 1989). The specified treatment (PF-1355, CB137 or solvent alone) is administered enterally. The animals are euthanized 4 hours after intratracheal instillation. […]
The lung sections are examined under a light microscope (Axio LabA1 by Zeiss brand) to assess the intensity of the neutrophil influx and the level of hemorrhage, and to identify the structural alterations. A minimum of 10 fields at 400× magnification is analyzed per animal. […]

αB-crystalline (αB-C) = target: T2, αB-crystalline (αB-C) (Homo sapiens, UniProt P02511); test: Surface plasmon resonance (Biacore 3000) affinity on αB-crystalline; format: binding; conditions: SPR at 25° C., read-out: Kd (M) on crystallin
T2 construct: purchased
T2 sequence (P02511 1-175): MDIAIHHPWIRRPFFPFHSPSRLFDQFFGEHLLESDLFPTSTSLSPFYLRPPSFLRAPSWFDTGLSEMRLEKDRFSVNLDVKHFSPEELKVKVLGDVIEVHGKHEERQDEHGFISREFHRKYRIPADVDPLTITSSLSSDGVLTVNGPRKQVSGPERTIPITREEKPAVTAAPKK
Description: as §1, §2, §3, §4

[2] = Table 2, compounds in the form of sulphate salts

Q: Which Kd (myeloperoxidase (MPO); Table 1) does the source give for `CCN(CCO)CCCC(C)Nc1c(Cl)cnc2cc(Cl)ccc12` (stereo not shown) [CB137] here?
A: 6.59 nM

Q: What about the Kd (myeloperoxidase (MPO); [2]) of the same compound?
A: 60 nM

Q: What about the “inhibition of pulmonary vasculitis / pulmonary inflammation induced by immune complexes (lung sections)” value [1] of the same compound?
A: inhibiting pulmonary vasculitis; also recorded: limits pulmonary inflammation

Q: What about the Kd (αB-crystalline (αB-C); Table 1) of the same compound?
A: 1.75e-07 M

Q: What about the Kd (αB-crystalline (αB-C); [2]) of the same compound?
A: 3e-05 M

Q: `CCN(CCO)CCCC(C)Nc1ccnc2cc(Cl)ccc12` (stereo not shown) [Commercial HCQ, hydroxychloroquine] was tested. Which Kd (myeloperoxidase (MPO); Table 1) did it give?
A: 710 nM

Q: What about the Kd (myeloperoxidase (MPO); [2]) of the same compound?
A: 4000 nM

Q: What about the “inhibition of pulmonary vasculitis / pulmonary inflammation induced by immune complexes (lung sections)” value [1] of the same compound?
A: inhibiting pulmonary vasculitis

Q: What about the Kd (αB-crystalline (αB-C); Table 1) of the same compound?
A: 2.2e-08 M

Q: What about the Kd (αB-crystalline (αB-C); [2]) of the same compound?
A: 1e-06 M
